In patent publication US11548870B2, “Compounds useful as inhibitors of helios protein” (Bristol-Myers Squibb Company, priority 2019, dated 2023) one finds DC50 and Dmax data, which are given here for 23 compounds.

Test [1] concerns the target T1, Helios (Homo sapiens, UniProt Q96SW2+Q9UKS7).
T1 construct: fluorescently labelled antibodies against Helios and Ikaros; endogenous in cells; host or cells: Jurkat cells
As to the kind of experiment: Helios Cellular Degradation Assay (flow cytometry, Helios-PE antibody staining, 72 h). To be noted: Jurkat cells, 72 h incubation, flow cytometry; for Dmax: Jurkat, read-out: Helios Dmax. Format: cell-based. In outline: (§1)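 Jurkat cells (80,000/well, RPMI+10% FBS) were exposed to compound for 72 h at 37 °C, then fixed, permeabilized and co-stained for 1 h with Ikaros-Alexa488 and Helios-PE antibodies. Intracellular protein levels were read by flow cytometry.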
Background: Flow cytometry measures light scatter and fluorescence of single cells or particles in a stream.

Test [2] concerns the target T2, Ikaros (Homo sapiens, UniProt Q13422).
T2 construct: fluorescently labelled antibodies against Helios and Ikaros; endogenous in cells; host or cells: Jurkat cells
As to the kind of experiment: Helios Cellular Degradation Assay, Ikaros readout (flow cytometry, Ikaros-Alexa488 antibody staining, 72 h). It is filed as cell-based. To be noted: Jurkat cells, 72 h incubation, flow cytometry; for Dmax: Jurkat, read-out: Ikaros Dmax. In outline: as §1

As a reminder, the DC50 is the concentration at which degradation of the target reaches its halfway point. Low readings indicate a more potent degrader, high ones a less potent degrader. Usually Dmax stands for the largest share of the target that was removed.

T1 sequence (Q9UKS7 whole entry): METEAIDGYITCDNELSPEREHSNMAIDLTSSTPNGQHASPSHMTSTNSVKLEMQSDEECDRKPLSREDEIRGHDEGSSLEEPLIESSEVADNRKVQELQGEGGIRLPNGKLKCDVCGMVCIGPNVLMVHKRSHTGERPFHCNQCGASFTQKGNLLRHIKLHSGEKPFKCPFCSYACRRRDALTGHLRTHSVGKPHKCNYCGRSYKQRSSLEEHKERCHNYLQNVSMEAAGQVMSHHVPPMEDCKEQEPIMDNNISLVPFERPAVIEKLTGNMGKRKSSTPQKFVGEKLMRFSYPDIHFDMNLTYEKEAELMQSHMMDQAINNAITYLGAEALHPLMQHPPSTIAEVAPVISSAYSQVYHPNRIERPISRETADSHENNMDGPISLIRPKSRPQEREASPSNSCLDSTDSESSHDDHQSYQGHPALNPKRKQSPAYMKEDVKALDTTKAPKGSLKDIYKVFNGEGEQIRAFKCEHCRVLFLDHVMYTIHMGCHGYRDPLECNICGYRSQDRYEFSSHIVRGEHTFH
T1 sequence (Q96SW2 whole entry): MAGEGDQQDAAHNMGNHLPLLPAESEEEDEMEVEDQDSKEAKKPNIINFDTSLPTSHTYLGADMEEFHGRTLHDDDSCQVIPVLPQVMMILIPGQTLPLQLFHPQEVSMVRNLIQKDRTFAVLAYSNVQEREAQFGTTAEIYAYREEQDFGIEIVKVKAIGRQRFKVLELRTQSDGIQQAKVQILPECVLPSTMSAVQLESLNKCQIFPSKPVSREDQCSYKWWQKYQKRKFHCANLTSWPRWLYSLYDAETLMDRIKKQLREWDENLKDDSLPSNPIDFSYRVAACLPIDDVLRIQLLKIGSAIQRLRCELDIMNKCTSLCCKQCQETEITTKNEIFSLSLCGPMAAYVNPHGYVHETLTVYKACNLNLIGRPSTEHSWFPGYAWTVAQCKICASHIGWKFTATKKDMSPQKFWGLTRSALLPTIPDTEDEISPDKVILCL
T1 sequence (Q16531 whole entry partner): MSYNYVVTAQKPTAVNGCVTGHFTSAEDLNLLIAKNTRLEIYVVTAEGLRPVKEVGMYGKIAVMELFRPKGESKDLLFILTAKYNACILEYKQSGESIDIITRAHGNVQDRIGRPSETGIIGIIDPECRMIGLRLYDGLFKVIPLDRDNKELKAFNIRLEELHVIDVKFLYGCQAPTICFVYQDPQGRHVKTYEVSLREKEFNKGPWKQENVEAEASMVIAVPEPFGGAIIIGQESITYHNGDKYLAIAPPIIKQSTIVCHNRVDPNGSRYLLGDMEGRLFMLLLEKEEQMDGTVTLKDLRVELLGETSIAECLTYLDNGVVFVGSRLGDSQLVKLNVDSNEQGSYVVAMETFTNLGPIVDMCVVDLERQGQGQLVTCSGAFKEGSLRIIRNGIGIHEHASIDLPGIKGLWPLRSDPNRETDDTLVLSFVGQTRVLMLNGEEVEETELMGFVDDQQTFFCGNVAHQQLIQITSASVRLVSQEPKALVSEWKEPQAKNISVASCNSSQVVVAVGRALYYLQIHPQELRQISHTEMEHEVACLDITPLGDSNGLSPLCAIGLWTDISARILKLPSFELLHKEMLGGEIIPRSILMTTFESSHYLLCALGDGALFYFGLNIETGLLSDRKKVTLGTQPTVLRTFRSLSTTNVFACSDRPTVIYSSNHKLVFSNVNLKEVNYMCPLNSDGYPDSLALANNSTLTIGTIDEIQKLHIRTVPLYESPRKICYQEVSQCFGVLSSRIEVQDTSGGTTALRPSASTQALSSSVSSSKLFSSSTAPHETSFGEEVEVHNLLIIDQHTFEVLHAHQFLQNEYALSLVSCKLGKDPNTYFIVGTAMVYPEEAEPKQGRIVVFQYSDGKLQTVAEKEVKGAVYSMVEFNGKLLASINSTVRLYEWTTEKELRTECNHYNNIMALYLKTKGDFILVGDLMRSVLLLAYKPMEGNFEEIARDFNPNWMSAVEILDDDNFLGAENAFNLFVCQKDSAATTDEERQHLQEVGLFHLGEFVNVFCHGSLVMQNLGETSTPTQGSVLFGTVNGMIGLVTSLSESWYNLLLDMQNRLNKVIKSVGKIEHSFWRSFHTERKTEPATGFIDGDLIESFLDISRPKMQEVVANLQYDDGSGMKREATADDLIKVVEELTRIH
T2 sequence (Q96SW2 whole entry partner): as the sequence (Q96SW2 whole entry) above
T2 sequence (Q16531 whole entry partner): as the sequence (Q16531 whole entry partner) above
T2 sequence (Q13422 whole entry): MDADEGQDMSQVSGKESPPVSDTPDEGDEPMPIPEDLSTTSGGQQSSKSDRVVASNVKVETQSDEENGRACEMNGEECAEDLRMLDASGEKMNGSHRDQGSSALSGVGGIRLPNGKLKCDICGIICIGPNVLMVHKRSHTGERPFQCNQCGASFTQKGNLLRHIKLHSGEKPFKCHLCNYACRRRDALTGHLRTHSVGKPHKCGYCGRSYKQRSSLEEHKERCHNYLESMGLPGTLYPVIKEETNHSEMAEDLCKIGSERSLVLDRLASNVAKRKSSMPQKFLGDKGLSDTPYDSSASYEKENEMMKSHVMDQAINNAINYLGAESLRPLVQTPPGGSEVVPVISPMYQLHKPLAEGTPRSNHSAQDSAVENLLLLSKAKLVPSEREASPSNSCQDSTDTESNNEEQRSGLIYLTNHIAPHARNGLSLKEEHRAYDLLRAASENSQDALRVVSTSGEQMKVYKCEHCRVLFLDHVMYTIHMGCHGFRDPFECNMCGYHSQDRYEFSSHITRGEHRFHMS

Turning to `O=C1CCC(N2Cc3cc(-c4cc(CN(Cc5ccccc5)Cc5ccccc5)ccn4)ccc3C2=O)C(=O)N1` (centres unmarked) [Example 163, 3-(5-{4-[(Dibenzylamino)methyl]pyridin-2-yl}-1-oxo-2,3-dihydro-1H-isoindol-2-yl)piperidine-2,6-dione], in test [1], half-maximal degradation (DC50) was put at 1020 nM and the Dmax was found to be 56%. Besides, in test [2], the DC50 was over 10000 nM and the Dmax worked out at 31%.
Regarding `CN(Cc1ccccc1)Cc1ccnc(-c2ccc3c(c2)CN(C2CCC(=O)NC2=O)C3=O)c1` (centres unmarked) [Example 164, 3-[5-(4-{[Benzyl(methyl)amino]methyl}pyridin-2-yl)-1-oxo-2,3-dihydro-1H-isoindol-2-yl]piperidine-2,6-dione], in test [1], it took 62 nM to reach half-maximal degradation (DC50) and the Dmax came out at 77%. Moreover, in test [2], the DC50 was over 10000 nM and the maximal degradation (Dmax) turned out to be 10%.
For `O=C1CCC(N2Cc3cc(-c4cc(CN5CCC5)ccn4)ccc3C2=O)C(=O)N1` (centres unmarked) [Example 165, 3-(5-{4-[(Azetidin-1-yl)methyl]pyridin-2-yl}-1-oxo-2,3-dihydro-1H-isoindol-2-yl) piperidine-2,6-dione], in that order: 56 nM, 95%, over 10000 nM and 14%.
For `O=C1CCC(N2Cc3cc(-c4cc(CN5CCOCC5)ccn4)ccc3C2=O)C(=O)N1` (centres unmarked) [Example 166, 3-(5-{4-[(Morpholin-4-yl)methyl]pyridin-2-yl}-1-oxo-2,3-dihydro-1H-isoindol-2-yl) piperidine-2,6-dione], in that order: 7860 nM, 52%, over 10000 nM and 7%.
`O=C1CCC(N2Cc3cc(-c4cc(CN5CCS(=O)(=O)CC5)ccn4)ccc3C2=O)C(=O)N1` (centres unmarked) [Example 167, 4-({2-[2-(2,6-Dioxopiperidin-3-yl)-1-oxo-2,3-dihydro-1H-isoindol-5-yl]pyridin-4-yl}methyl)-1λ6-thiomorpholine-1,1-dione]: in test [1], the DC50 was over 10000 nM and the Dmax amounted to 41%. Further, in test [2], the DC50 was over 10000 nM and the Dmax was found to be 12%.
As for `COc1ccc(CN(C)Cc2ccnc(-c3ccc4c(c3)CN(C3CCC(=O)NC3=O)C4=O)c2)cn1` (centres unmarked) [Example 168, 3-{5-[4-({[(6-Methoxypyridin-3-yl)methyl](methyl)amino}methyl)pyridin-2-yl]-1-oxo-2,3-dihydro-1H-isoindol-2-yl}piperidine-2,6-dione], the DC50 was 309 nM in test [1] and over 10000 nM in test [2]. Moreover, the Dmax in test [1] is 77%; in test [2], 20%.
On to `CN(Cc1ccnc(-c2ccc3c(c2)CN(C2CCC(=O)NC2=O)C3=O)c1)Cc1cccc2[nH]ncc12` (centres unmarked) [Example 169, 3-(5-(4-((((1H-indazol-4-yl)methyl)(methyl)amino)methyl)pyridin-2-yl)-1-oxoisoindolin-2-yl)piperidine-2,6-dione], for which, in test [1], the 50% degradation concentration (DC50) came to 195 nM and the Dmax worked out at 79%. Besides, in test [2], the DC50 is over 10000 nM and the Dmax came to 16%.
`CN1CCC(N(C)Cc2ccnc(-c3ccc4c(c3)CN(C3CCC(=O)NC3=O)C4=O)c2)CC1` (centres unmarked) [Example 170, 3-(5-(4-((methyl (1-methylpiperidin-4-yl)amino)methyl)pyridin-2-yl)-1-oxoisoindolin-2-yl)piperidine-2,6-dione]: in test [1], the DC50 was over 10000 nM and the Dmax was 22%. In test [2], the DC50 is over 10000 nM and the maximal degradation (Dmax) was determined as 2%.
Take `CN(CCc1ccccc1)Cc1ccnc(-c2ccc3c(c2)CN(C2CCC(=O)NC2=O)C3=O)c1` (centres unmarked) [Example 171, 3-(5-(4-((methyl(phenethyl)amino)methyl)pyridin-2-yl)-1-oxoisoindolin-2-yl)piperidine-2,6-dione]: the DC50 in test [1] was 317 nM; in test [2] it was over 10000 nM. The Dmax amounted to 80% in test [1] and 4% in test [2].
Consider `CN(Cc1ccoc1)Cc1ccnc(-c2ccc3c(c2)CN(C2CCC(=O)NC2=O)C3=O)c1` (centres unmarked) [Example 172, 3-(5-(4-(((furan-3-ylmethyl)(methyl)amino)methyl)pyridin-2-yl)-1-oxoisoindolin-2-yl)piperidine-2,6-dione], for which, in test [1], the DC50 worked out at 75 nM and the Dmax stood at 90%. Also, in test [2], the DC50 was over 10000 nM and the Dmax was 12%.
On to `CN(Cc1ccnc(-c2ccc3c(c2)CN(C2CCC(=O)NC2=O)C3=O)c1)CC1CC1` (centres unmarked) [Example 173, 3-(5-(4-(((cyclopropylmethyl)(methyl)amino)methyl)pyridin-2-yl)-1-oxoisoindolin-2-yl) piperidine-2,6-dione], for which, in test [1], half-maximal degradation (DC50) was put at 73 nM and the greatest degradation seen (Dmax) is 86%. In test [2], the half-maximal degradation concentration (DC50) is over 10000 nM and the greatest degradation seen (Dmax) is 0%.
Regarding `CN(Cc1ccnc(-c2ccc3c(c2)CN(C2CCC(=O)NC2=O)C3=O)c1)Cc1cncn1C` (centres unmarked) [Example 174, 3-(5-(4-((methyl((1-methyl-1H-imidazol-5-yl)methyl)amino)methyl)pyridin-2-yl)-1-oxoisoindolin-2-yl)piperidine-2,6-dione], in test [1], the half-maximal degradation concentration (DC50) stood at 5870 nM and the Dmax came out at 54%. In addition, in test [2], the half-maximal degradation concentration (DC50) is over 10000 nM and the greatest degradation seen (Dmax) was found to be 20%.
For `CN(Cc1ccnc(-c2ccc3c(c2)CN(C2CCC(=O)NC2=O)C3=O)c1)CC1CCCC1` (centres unmarked) [Example 175, 3-(5-(4-(((cyclopentylmethyl)(methyl)amino)methyl)pyridin-2-yl)-1-oxoisoindolin-2-yl) piperidine-2,6-dione], the DC50 was 78 nM in test [1] and over 10000 nM in test [2]. Further, the figures for the Dmax in test [1] and in test [2] were 78% and 7%, respectively.
For `CN(Cc1ccnc(-c2ccc3c(c2)CN(C2CCC(=O)NC2=O)C3=O)c1)Cc1nccs1` (centres unmarked) [Example 176, 3-(5-(4-((methyl(thiazol-2-ylmethyl)amino)methyl)pyridin-2-yl)-1-oxoisoindolin-2-yl)piperidine-2,6-dione], in that order: 1120 nM, over 10000 nM, 65% and 30%.
With `CN(Cc1ccc(-n2ccnc2)cc1)Cc1ccnc(-c2ccc3c(c2)CN(C2CCC(=O)NC2=O)C3=O)c1` (centres unmarked) [Example 177, 3-(5-(4-(((4-(1H-imidazol-1-yl)benzyl)(methyl)amino)methyl)pyridin-2-yl)-1-oxoisoindolin-2-yl)piperidine-2,6-dione], in test [1], the DC50 is over 10000 nM and the maximal degradation (Dmax) was determined as 43%. Further, in test [2], the 50% degradation concentration (DC50) was over 10000 nM and the Dmax came out at 12%.
Consider `CC(C)CN(C)Cc1ccnc(-c2ccc3c(c2)CN(C2CCC(=O)NC2=O)C3=O)c1` (centres unmarked) [Example 179, 3-(5-(4-((isobutyl(methyl)amino)methyl)pyridin-2-yl)-1-oxoisoindolin-2-yl)piperidine-2,6-dione], for which, in test [1], the half-maximal degradation concentration (DC50) is 212 nM and the Dmax was 78%. Also, in test [2], the DC50 was over 10000 nM and the maximal degradation (Dmax) worked out at 4%.
Take `CC(C)CCN(C)Cc1ccnc(-c2ccc3c(c2)CN(C2CCC(=O)NC2=O)C3=O)c1` (centres unmarked) [Example 180, 3-(5-(4-((isopentyl(methyl)amino)methyl)pyridin-2-yl)-1-oxoisoindolin-2-yl)piperidine-2,6-dione]: in test [1], the DC50 was 352 nM and the Dmax is 87%. For the same compound, in test [2], the DC50 is over 10000 nM and the Dmax amounted to 13%.
Take `CC(CO)N(C)Cc1ccnc(-c2ccc3c(c2)CN(C2CCC(=O)NC2=O)C3=O)c1` (centres unmarked) [Example 181, 3-(5-(4-(((1-hydroxypropan-2-yl)(methyl)amino)methyl)pyridin-2-yl)-1-oxoisoindolin-2-yl) piperidine-2,6-dione]: the DC50 in test [1] was 499 nM; in test [2], over 10000 nM. For the same compound, the results for the Dmax in test [1] and in test [2] were 83% and 10%, respectively.
In the case of `CN(Cc1ccnc(-c2ccc3c(c2)CN(C2CCC(=O)NC2=O)C3=O)c1)CC1CCOC1` (centres unmarked) [Example 182, 3-(5-(4-((methyl((tetrahydrofuran-3-yl)methyl)amino)methyl)pyridin-2-yl)-1-oxoisoindolin-2-yl)piperidine-2,6-dione], in test [1], the DC50 was found to be 316 nM and the Dmax was 79%. In test [2], the DC50 was over 10000 nM and the Dmax came out at 23%.
For the compound `CN(Cc1ccnc(-c2ccc3c(c2)CN(C2CCC(=O)NC2=O)C3=O)c1)Cc1cnc2ccccc2n1` (centres unmarked) [Example 183, 3-(5-(4-((methyl (quinoxalin-2-ylmethyl)amino)methyl)pyridin-2-yl)-1-oxoisoindolin-2-yl)piperidine-2,6-dione], in test [1], it took 167 nM to reach half-maximal degradation (DC50) and the greatest degradation seen (Dmax) came out at 76%. Moreover, in test [2], the DC50 was over 10000 nM and the Dmax stood at 10%.
Take `CN(CCC(F)(F)F)Cc1ccnc(-c2ccc3c(c2)CN(C2CCC(=O)NC2=O)C3=O)c1` (centres unmarked) [Example 184, 3-(5-(4-((methyl(3,3,3-trifluoropropyl)amino)methyl)pyridin-2-yl)-1-oxoisoindolin-2-yl)piperidine-2,6-dione]: the values for the DC50 in test [1] and in test [2] were 6050 nM and over 10000 nM, respectively. Moreover, the results for the Dmax in test [1] and in test [2] were 54% and 14%, respectively.
With `CC(CCO)N(C)Cc1ccnc(-c2ccc3c(c2)CN(C2CCC(=O)NC2=O)C3=O)c1` (centres unmarked) [Example 185, 3-(5-(4-(((4-hydroxybutan-2-yl)(methyl)amino)methyl)pyridin-2-yl)-1-oxoisoindolin-2-yl)piperidine-2,6-dione], in test [1], the DC50 worked out at 421 nM and the Dmax amounted to 62%. In test [2], the DC50 was over 10000 nM and the maximal degradation (Dmax) amounted to 2%.
For `O=C1CCC(N2Cc3cc(-c4cc(CN5CC(c6ccccc6)C5)c(Cl)cn4)ccc3C2=O)C(=O)N1` (centres unmarked) [Example 186, 3-(5-(5-chloro-4-((3-phenylazetidin-1-yl)methyl)pyridin-2-yl)-1-oxoisoindolin-2-yl)piperidine-2,6-dione], in that order: 230 nM, 62%, over 10000 nM and 8%.
